Converted amounts (≈) assume the structure as drawn.

The test relates to Enterococcus faecalis ATCC 29212. Put plainly: MIC against Enterococcus faecalis ATCC 29212. The class given is cell-based. To be noted: ATCC29212; Enterococcus faecalis ATCC 29212; read-out: MICs against Enterococcus faecalis, Activity. As for the experimental part:
Institute. Methods for Dilution Antimicrobial Susceptibility Tests for Bacteria That Grow Aerobically; Approved Standard—Seventh Edition. Document M7-A7. CLSI, Wayne, Pa., 2006; Clinical Laboratories and Standards Institute. Methods for Antimicrobial Susceptibility Testing of Anaerobic Bacteria; Approved Standard—Sixth Edition. Document M11-A6. CLSI, Wayne, Pa., 2004).
Compounds of this invention were tested for antimicrobial activity by susceptibility testing in liquid or on solid media. MICs for compounds against each strain were determined by the broth microdilution or agar dilution method according to the guidelines of the Clinical Laboratories and Standards Institute, formerly the National Committee for Clinical Laboratory Standards (Clinical Laboratories and Standards Institute. Methods for Dilution Antimicrobial Susceptibility Tests for Bacteria That Grow Aerobically; Approved Standard—Seventh Edition. Document M7-A7. CLSI, Wayne, Pa., 2006; Clinical Laboratories and Standards Institute. Methods for Antimicrobial Susceptibility Testing of Anaerobic Bacteria; Approved Standard—Sixth Edition. Document M11-A6. CLSI, Wayne, Pa., 2004).

With `CCNC(=O)Nc1nc2cc(-c3ccc(NC(C)=O)nc3)cc(-c3ccc(N)cn3)c2s1` [Example 135, N-{5-[7-(5-Amino-pyridin-2-yl)-2-(3-ethyl-ureido)-benzothiazol-5-yl]-pyridin-2-yl}-acetamide], the MIC lay in the range of 0.25 to 1 µg/mL (≈ 0.559 to 2.23 µM).
Take `CCNC(=O)Nc1nc2cc(-c3ccc(CCO)nc3)cc(-c3ccccn3)c2s1` [Example 58, 1-Ethyl-3-{5-[6-(2-hydroxy-ethyl)-pyridin-3-yl]-7-pyridin-2-yl-benzothiazol-2-yl}-urea]: the MIC is below 0.25 µg/mL.
With `CCNC(=O)Nc1nc2cc(-n3ccnc3)cc(-c3ccccn3)c2s1` [Example 142, 1-Ethyl-3-(5-imidazol-1-yl-7-pyridin-2-yl-benzothiazol-2-yl)-urea] the figure was below 0.25 µg/mL; with `CCNC(=O)Nc1nc2cc(-c3cccnc3)cc(-c3cccc(O)n3)c2s1` [Example 173, 1-Ethyl-3-[7-(6-hydroxy-pyridin-2-yl)-5-pyridin-3-yl-benzothiazol-2-yl]-urea], 2 to 16 µg/mL (≈ 5.11 to 40.9 µM).
As for `CCNC(=O)Nc1nc2cc(-c3ccc(CC(=O)OC)nc3)cc(-c3ccccn3)c2s1` [Example 69, {5-[2-(3-Ethyl-ureido)-7-pyridin-2-yl-benzothiazol-5-yl]-pyridin-2-yl}-acetic acid methyl ester], the MIC is below 0.25 µg/mL.
In the case of `CCNC(=O)Nc1nc2cc(-c3ccc(N)nc3)cc(-c3cccnc3)c2s1` [Example 17, 1-[5-(6-Amino-pyridin-3-yl)-7-pyridin-3-yl-benzothiazol-2-yl]-3-ethyl-urea], the MIC was 0.25 to 1 µg/mL (≈ 0.64 to 2.56 µM).
With `CCNC(=O)Nc1nc2cc(-c3ccc(C#N)nc3)cc(-c3ccccn3)c2s1` [Example 33, 1-[5-(6-Cyano-pyridin-3-yl)-7-pyridin-2-yl-benzothiazol-2-yl]-3-ethyl-urea] the figure was below 0.25 µg/mL; with `CCNC(=O)Nc1nc2cc(-c3ccc(CC(=O)NC)nc3)cc(-c3ccccn3)c2s1` [Example 70, 2-{5-[2-(3-Ethyl-ureido)-7-pyridin-2-yl-benzothiazol-5-yl]-pyridin-2-yl}-N-methyl-acetamide], below 0.25 µg/mL.
The figure for `CCNC(=O)Nc1nc2cc(-c3cccnc3)cc(-c3ccc(C(N)=O)cn3)c2s1` [Example 98, 6-[2-(3-Ethyl-ureido)-5-pyridin-3-yl-benzothiazol-7-yl]-nicotinamide] is 0.25 to 1 µg/mL (≈ 0.597 to 2.39 µM); for `CCNC(=O)Nc1nc2cc(-n3cccn3)cc(-c3cccnc3)c2s1` [Example 12, 1-Ethyl-3-(5-pyrazol-1-yl-7-pyridin-3-yl-benzothiazol-2-yl)-urea] it is 2 to 16 µg/mL (≈ 5.49 to 43.9 µM).
With `CCNC(=O)Nc1nc2cc(-c3cccnc3)cc(-c3cc(C#N)ccn3)c2s1` [Example 119, 1-[7-(4-Cyano-pyridin-2-yl)-5-pyridin-3-yl-benzothiazol-2-yl]-3-ethyl-urea] the figure was below 0.25 µg/mL; with `CCNC(=O)Nc1nc2cc(-c3cccnc3)cc(-c3nccn3C)c2s1` [Example 162, 1-Ethyl-3-[7-(1-methyl-1H-imidazol-2-yl)-5-pyridin-3-yl-benzothiazol-2-yl]-urea], 2 to 16 µg/mL (≈ 5.28 to 42.3 µM).
For `CCNC(=O)Nc1nc2cc(-c3ccc(NC(=O)CN(C)C)nc3)cc(-c3ccccn3)c2s1` [Example 66, 2-Dimethylamino-N-{5-[2-(3-ethyl-ureido)-7-pyridin-2-yl-benzothiazol-5-yl]-pyridin-2-yl}-acetamide], the MIC lay within 0.25 to 1 µg/mL (≈ 0.526 to 2.1 µM).
With `CCNC(=O)Nc1nc2cc(-n3ccccc3=O)cc(-c3cccnc3)c2s1` [Example 141, 1-Ethyl-3-[5-(2-oxo-2H-pyridin-1-yl)-7-pyridin-3-yl-benzothiazol-2-yl]-urea] the figure was 2 to 16 µg/mL (≈ 5.11 to 40.9 µM); with `CCNC(=O)Nc1nc2cc(-c3ccc(NCCN(C)C)nc3)cc(-c3ccccn3)c2s1` [Example 61, 1-{5-[6-(2-Dimethylamino-ethylamino)-pyridin-3-yl]-7-pyridin-2-yl-benzothiazol-2-yl}-3-ethyl-urea], 0.25 to 1 µg/mL (≈ 0.542 to 2.17 µM); with `CCNC(=O)Nc1nc2cc(-c3cccnc3)cc(-c3ccc(C(F)(F)F)cn3)c2s1` [Example 129, 1-Ethyl-3-[5-pyridin-3-yl-7-(5-trifluoromethyl-pyridin-2-yl)-benzothiazol-2-yl]-urea], 0.25 to 1 µg/mL (≈ 0.564 to 2.26 µM).
The figure for `CCNC(=O)Nc1nc2cc(-c3ccc(CO)nc3)cc(-c3cccnc3)c2s1` [Example 19, 1-Ethyl-3-[5-(6-hydroxymethyl-pyridin-3-yl)-7-pyridin-3-yl-benzothiazol-2-yl]-urea] is 0.25 to 1 µg/mL (≈ 0.617 to 2.47 µM); for `CCNC(=O)Nc1nc2cc(-c3ccc(CN4CCOCC4)nc3)cc(-c3ccccn3)c2s1` [Example 59, 1-Ethyl-3-[5-(6-morpholin-4-ylmethyl-pyridin-3-yl)-7-pyridin-2-yl-benzothiazol-2-yl]-urea] it is below 0.25 µg/mL; for `CCNC(=O)Nc1nc2cc(-c3cccnc3)cc(-c3cscn3)c2s1` [Example 158, 1-Ethyl-3-(5-pyridin-3-yl-7-thiazol-4-yl-benzothiazol-2-yl)-urea] it is 0.25 to 1 µg/mL (≈ 0.655 to 2.62 µM).
With `CCNC(=O)Nc1nc2cc(-c3cccnc3)cc(-c3ncccc3C#N)c2s1` [Example 95, 1-[7-(3-Cyano-pyridin-2-yl)-5-pyridin-3-yl-benzothiazol-2-yl]-3-ethyl-urea] the figure was below 0.25 µg/mL; with `CCNC(=O)Nc1nc2cc(-c3cccnc3)cc(-c3ccc(CN)cn3)c2s1` [Example 97, 1-[7-(5-Aminomethyl-pyridin-2-yl)-5-pyridin-3-yl-benzothiazol-2-yl]-3-ethyl-urea], 0.25 to 1 µg/mL (≈ 0.618 to 2.47 µM).
For the compound `CCNC(=O)Nc1nc2cc(-c3ccc(NC(C)=O)nc3)cc(-c3ccccn3)c2s1` [Example 133, N-{5-[2-(3-Ethyl-ureido)-7-pyridin-2-yl-benzothiazol-5-yl]-pyridin-2-yl}-acetamide], the MIC is below 0.25 µg/mL.
In the case of `CCNC(=O)Nc1nc2cc(-c3cccnc3)cc(-c3cc(N)ccn3)c2s1` [Example 100, 1-[7-(4-Amino-pyridin-2-yl)-5-pyridin-3-yl-benzothiazol-2-yl]-3-ethyl-urea], the MIC was below 0.25 µg/mL.
With `CCNC(=O)Nc1nc2cc(-c3cccnc3)cc(-c3ccc(CO)cn3)c2s1` [Example 96, 1-Ethyl-3-[7-(5-hydroxymethyl-pyridin-2-yl)-5-pyridin-3-yl-benzothiazol-2-yl]-urea] the figure was below 0.25 µg/mL; with `CCNC(=O)Nc1nc2cc(-c3cncc(C)c3)cc(-c3ccccn3)c2s1` [Example 36, 1-Ethyl-3-[5-(5-methyl-pyridin-3-yl)-7-pyridin-2-yl-benzothiazol-2-yl]-urea], below 0.25 µg/mL; with `CCNC(=O)Nc1nc2cc(-c3cccnc3)cc(-c3cccc(N(C)C)n3)c2s1` [Example 168, 1-[7-(6-Dimethylamino-pyridin-2-yl)-5-pyridin-3-yl-benzothiazol-2-yl]-3-ethyl-urea], 0.25 to 1 µg/mL (≈ 0.597 to 2.39 µM).
With `CCNC(=O)Nc1nc2cc(-c3cccnc3)cc(-c3cc(C(N)=O)ccn3)c2s1` [Example 108, 2-[2-(3-Ethyl-ureido)-5-pyridin-3-yl-benzothiazol-7-yl]-isonicotinamide] the figure was 0.25 to 1 µg/mL (≈ 0.597 to 2.39 µM); with `CCNC(=O)Nc1nc2cc(-c3cccnc3)cc(-c3cncs3)c2s1` [Example 161, 1-Ethyl-3-(5-pyridin-3-yl-7-thiazol-5-yl-benzothiazol-2-yl)-urea], below 0.25 µg/mL.
The figure for `CCNC(=O)Nc1nc2cc(-c3cccnc3)cc(N)c2s1` [Example 149, 1-(7-Amino-5-pyridin-3-yl-benzothiazol-2-yl)-3-ethyl-urea] is 2 to 16 µg/mL (≈ 6.38 to 51.1 µM).
For the compound `CCNC(=O)Nc1nc2cc(Br)cc(-c3cnn(C)c3)c2s1` [Example 5, 1-[5-Bromo-7-(1-methyl-1H-pyrazol-4-yl)-benzothiazol-2-yl]-3-ethyl-urea], the MIC was in the range of 2 to 16 µg/mL (≈ 5.26 to 42.1 µM).
The figure for `CCNC(=O)Nc1nc2cc(-c3cnc4[nH]ccc4c3)cc(-c3cccnc3)c2s1` [Example 49, 1-Ethyl-3-[7-pyridin-3-yl-5-(1H-pyrrolo[2,3-b]pyridin-5-yl)-benzothiazol-2-yl]-urea] is 0.25 to 1 µg/mL (≈ 0.603 to 2.41 µM); for `CCNC(=O)Nc1nc2cc(I)cc(-c3cccnc3)c2s1` [Example 8, 1-Ethyl-3-(5-iodo-7-pyridin-3-yl-benzothiazol-2-yl)-urea] it is 2 to 16 µg/mL (≈ 4.71 to 37.7 µM).
The figure for `CCNC(=O)Nc1nc2cc(-c3cccnc3)cc(-c3ncccc3OC)c2s1` [Example 118, 1-Ethyl-3-[7-(3-methoxy-pyridin-2-yl)-5-pyridin-3-yl-benzothiazol-2-yl]-urea] is below 0.25 µg/mL; for `CCNC(=O)Nc1nc2cc(-c3cccnc3)cc(-c3ccc4cc[nH]c4n3)c2s1` [Example 111, 1-Ethyl-3-[5-pyridin-3-yl-7-(1H-pyrrolo[2,3-b]pyridin-6-yl)-benzothiazol-2-yl]-urea] it is below 0.25 µg/mL.
The figure for `CCNC(=O)Nc1nc2cc(Br)cc(-c3ccc(N)nc3)c2s1` [Example 1, 1-[7-(6-Amino-pyridin-3-yl)-5-bromo-benzothiazol-2-yl]-3-ethyl-urea] is 2 to 16 µg/mL (≈ 5.1 to 40.8 µM); for `CCNC(=O)Nc1nc2cc(-c3cccnc3)cc(-c3csc(O)n3)c2s1` [Example 172, 1-Ethyl-3-[7-(2-hydroxy-thiazol-4-yl)-5-pyridin-3-yl-benzothiazol-2-yl]-urea] it is 2 to 16 µg/mL (≈ 5.03 to 40.3 µM).
For `CCNC(=O)Nc1nc2cc(-c3ccc(CO)cc3)cc(-c3cccnc3)c2s1` [Example 18, 1-Ethyl-3-[5-(4-hydroxymethyl-phenyl)-7-pyridin-3-yl-benzothiazol-2-yl]-urea], the MIC is 2 to 16 µg/mL (≈ 4.94 to 39.6 µM).
With `CCNC(=O)Nc1nc2cc(-c3cncc(C(=O)NCCN4CCOCC4)c3)cc(-c3ccccn3)c2s1` [Example 68, 5-[2-(3-Ethyl-ureido)-7-pyridin-2-yl-benzothiazol-5-yl]-N-(2-morpholin-4-yl-ethyl)-nicotinamide] the figure was 0.25 to 1 µg/mL (≈ 0.47 to 1.88 µM).
